Source: patent US20070191420A1, “Kinase inhibitors” (Devgen NV, priority 2004, published 2007)
Structures can show the parent of a compound that is named as a salt.

Key:
Test in all cases: Fluorescence polarization (FP) PKC inhibition assay, Protein Kinase C Assay Kit, Red (Invitrogen)
Format in all cases: biochemical
PKC epsilon = biological target: T1, PKC epsilon (Homo sapiens, UniProt Q02156); details: enzyme 10 ng/ml, ATP 2.5 μM, substrate […] 1 μM
T1 construct: purchased Invitrogen 6906
T1 sequence (Q02156 1-737): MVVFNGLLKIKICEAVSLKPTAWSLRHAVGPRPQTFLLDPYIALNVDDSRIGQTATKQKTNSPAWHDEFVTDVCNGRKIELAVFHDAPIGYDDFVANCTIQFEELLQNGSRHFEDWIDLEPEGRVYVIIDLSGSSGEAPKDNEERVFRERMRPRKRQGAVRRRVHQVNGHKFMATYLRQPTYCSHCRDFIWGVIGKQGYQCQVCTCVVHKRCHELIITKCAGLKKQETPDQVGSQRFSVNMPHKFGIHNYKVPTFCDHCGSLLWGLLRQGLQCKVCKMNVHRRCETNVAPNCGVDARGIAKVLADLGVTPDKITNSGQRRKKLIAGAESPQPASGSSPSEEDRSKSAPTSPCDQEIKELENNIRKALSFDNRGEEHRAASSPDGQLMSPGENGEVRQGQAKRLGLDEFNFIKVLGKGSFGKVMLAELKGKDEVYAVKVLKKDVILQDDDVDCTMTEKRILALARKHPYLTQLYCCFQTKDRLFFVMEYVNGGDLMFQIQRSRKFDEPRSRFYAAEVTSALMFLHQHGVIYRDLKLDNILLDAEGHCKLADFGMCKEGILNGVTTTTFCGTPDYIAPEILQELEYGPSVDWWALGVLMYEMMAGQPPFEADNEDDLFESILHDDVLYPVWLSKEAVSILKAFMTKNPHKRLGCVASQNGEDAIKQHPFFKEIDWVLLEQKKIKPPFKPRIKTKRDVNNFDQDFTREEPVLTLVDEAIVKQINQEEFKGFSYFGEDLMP
Procedure: (§1) The substrate used was […]
(§2) To perform the assay, 2 μl of a solution of the compound to be tested in DMSO (at each concentration) was added to 6 μl of a solution of the enzyme in 10 mM HEPES, 5 mM dithiotreitol, 0.1% Triton X-100, pH 7,4.
(§3) After incubating for 30 minutes at room temperature, 4 μl of a mixture of ATP and the protein substrate in 60 mM HEPES (pH7.4), 15 mM MgCl2, 0.3 mM CaCl2, 0.06% NP40 was added.
(§4) After incubating for 80 minutes at room temperature, 3 μl of a mix solution of 500 mM EDTA (stop solution) and the Rhodamine-based PKC Red Tracer (from the Protein Kinase C Assay Kit) in BGG/phosphate buffer (pH7.4) with 0.02% NaN3 and 0.1% Triton X-100 was added and 5 μl of a the Anti-Phosphoserine antibody (also from the Protein Kinase C Assay Kit) in BGG/phosphate buffer (pH7.4) with 0.02% NaN3.
(§5) The results were fitted to a curve using the XL-Fit algorithm and IC50 values were calculated for each fitted curve, again using the XL-Fit algorithm.

PKC gamma = biological target: T2, PKC gamma (Homo sapiens, UniProt P05129); details: enzyme 20 ng/ml, ATP 2.5 μM, substrate […] 1 μM
T2 construct: purchased Invitrogen 9343
Procedure: as §1, §2, §3, §4, §5

PKC theta = biological target: T3, PKC theta (Homo sapiens, UniProt Q04759); details: enzyme 20 ng/ml, ATP 2.5 μM, substrate […] 1 μM
T3 construct: purchased Invitrogen 7101
Procedure: as §1, §2, §3, §4, §5

PKC zeta = biological target: T4, PKC zeta (Homo sapiens, UniProt Q05513); details: enzyme 20 ng/ml, ATP 2.5 μM, substrate […] 1 μM
T4 construct: purchased Invitrogen 9232
T4 sequence (Q05513 1-592): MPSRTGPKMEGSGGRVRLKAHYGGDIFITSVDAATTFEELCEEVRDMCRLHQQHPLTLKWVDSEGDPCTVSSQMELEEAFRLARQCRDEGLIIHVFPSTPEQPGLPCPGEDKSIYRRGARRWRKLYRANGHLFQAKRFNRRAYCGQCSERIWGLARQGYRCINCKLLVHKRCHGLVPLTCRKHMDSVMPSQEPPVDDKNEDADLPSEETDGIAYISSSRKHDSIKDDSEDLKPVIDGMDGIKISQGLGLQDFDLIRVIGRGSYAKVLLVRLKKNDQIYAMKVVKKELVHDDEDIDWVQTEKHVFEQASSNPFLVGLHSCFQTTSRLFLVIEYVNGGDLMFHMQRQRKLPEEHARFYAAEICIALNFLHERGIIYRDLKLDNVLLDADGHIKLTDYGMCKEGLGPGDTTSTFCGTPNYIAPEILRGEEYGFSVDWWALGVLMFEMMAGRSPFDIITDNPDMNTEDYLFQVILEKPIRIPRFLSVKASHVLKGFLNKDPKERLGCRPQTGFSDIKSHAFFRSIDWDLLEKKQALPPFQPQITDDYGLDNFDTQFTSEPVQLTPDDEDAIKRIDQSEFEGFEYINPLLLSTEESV
Procedure: as §2, §3, §4, §5

T3 sequence (Q04759 whole entry): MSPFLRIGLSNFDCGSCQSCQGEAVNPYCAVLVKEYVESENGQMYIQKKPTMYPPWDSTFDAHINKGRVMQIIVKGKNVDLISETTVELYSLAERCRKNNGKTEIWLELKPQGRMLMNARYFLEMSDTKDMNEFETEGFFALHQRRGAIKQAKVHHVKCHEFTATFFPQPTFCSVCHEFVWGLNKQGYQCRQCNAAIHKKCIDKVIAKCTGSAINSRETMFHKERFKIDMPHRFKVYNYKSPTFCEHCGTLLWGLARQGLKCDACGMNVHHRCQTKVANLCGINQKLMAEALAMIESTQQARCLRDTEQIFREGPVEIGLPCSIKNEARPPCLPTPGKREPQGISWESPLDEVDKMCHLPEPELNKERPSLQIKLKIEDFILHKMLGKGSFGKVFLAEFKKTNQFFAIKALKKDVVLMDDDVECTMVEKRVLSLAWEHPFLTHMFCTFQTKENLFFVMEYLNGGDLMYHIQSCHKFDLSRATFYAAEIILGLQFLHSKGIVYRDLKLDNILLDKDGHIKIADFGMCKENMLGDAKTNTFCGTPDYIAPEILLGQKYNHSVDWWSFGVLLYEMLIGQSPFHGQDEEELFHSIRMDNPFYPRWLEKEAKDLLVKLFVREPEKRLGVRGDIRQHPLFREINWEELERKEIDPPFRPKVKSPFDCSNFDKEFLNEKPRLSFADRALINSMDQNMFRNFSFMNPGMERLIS

Row | IC50 (PKC epsilon) [µM] | IC50 (PKC gamma) [µM] | IC50 (PKC theta) [µM] | IC50 (PKC zeta) [µM] | Compound
1 | 0.94 | 76 | 1.7 | 70 | NC(c1ccc(C(=O)Nc2ccncc2)cc1)C1CCCC1 (stereo not shown) [Compound 27]
2 | 2.6 | > 100 | 7.7 | > 100 | NC(c1ccc(C(=O)Nc2ccncc2)cc1)C1CCCCC1 (stereo not shown) [Compound 28]
3 | 6.1 | > 100 | 13.7 | > 100 | NC1CCCc2cc(C(=O)Nc3ccncc3)ccc21 (stereo not shown) [Compound 29]
4 | 9.8 | > 100 | 17.2 | > 100 | O=C(Nc1ccncc1)c1ccc(C2CCCN2)cc1 (stereo not shown) [Compound 30, N-pyridin-4-yl-4-pyrrolidin-2-yl-benzamide dihydrochloric acid salt]
5 | 3.7 | > 100 | 8.04 | > 100 | O=C(Nc1ccncc1)c1ccc(C2CCCCN2)cc1 (stereo not shown) [Compound 31, 4-piperidin-2-yl-N-pyridin-4-yl-benzamide dihydrochloric acid salt]
6 | 30.5 | > 100 | 31.6 | > 100 | O=C(Nc1ccncc1)c1ccc2c(c1)CCNC2 [Compound 32, 1,2,3,4-tetrahydro-isoquinoline-6-carboxylic acid pyridinedin-4-yl-amide dihydrochloric acid salt]
7 | 62 | > 100 | 53.5 | > 100 | O=C(Nc1ccncc1)c1ccc(C2=NCCN2)cc1 [Compound 33, 4-(4,5-dihydro-1H-imidazol-2-yl)-N-pyridin-4-yl-benzamide]
8 | 19.5 | > 100 | 75 | > 100 | O=C(Nc1ccncc1)c1ccc(C2=NCCCN2)cc1 [Compound 34, N-pyridin-4-yl-4-(1,4,5,6-tetrahydro-1H-pyrimidin-2-yl)-benzamide]
9 | 8.04 | > 100 | 11.3 | > 100 | NC(c1ccccc1)c1ccc(C(=O)Nc2ccncc2)cc1 (stereo not shown) [Compound 35, 4-(1-amino-phenyl-methyl)-N-pyridin-4-yl-benzamide]
10 | 9.5 | > 100 | 28.9 | > 100 | NC(c1ccc(F)cc1)c1ccc(C(=O)Nc2ccncc2)cc1 (stereo not shown) [Compound 36, 4-[1-amino-(4-fluorophenyl)-methyl]-N-pyridin-4-yl-benzamide dihydrochloric acid salt]
11 | 18.7 | > 100 | 80.3 | > 100 | COc1ccc(C(N)c2ccc(C(=O)Nc3ccncc3)cc2)cc1 (stereo not shown) [Compound 37, 4-[1-amino-(4-methoxyphenyl)-methyl]-N-pyridin-4-yl-benzamide]
12 | 2.5 | > 100 | 7.8 | 6.4 | CC(N)c1ccc(C(=O)Nc2ccncc2)c2ccccc12 (stereo not shown) [Compound 38, 4-(1-amino-ethyl)-naphthalene-1-carboxylic acid pyridinedin-4-ylamide dihydrochloric acid salt]
13 | 0.4 | 11.3 | 0.77 | > 100 | CC(N)c1ccc(C(=O)Nc2ccnc3[nH]ccc23)cc1 (stereo not shown) [Compound 41, 4-(1-amino-ethyl)-N-(1H-pyrrolo[2,3pyridinedin-4-yl)-benzamidedihydrochloric acid salt]
14 | 0.3 | 17.3 | 0.63 | > 100 | NC(c1ccc(C(=O)Nc2ccnc3[nH]ccc23)cc1)C1CCCC1 (stereo not shown) [Compound 42]
15 | 9.9 | 21.8 | 8.6 | > 100 | O=C(Nc1ccnc2[nH]ccc12)c1ccc2c(c1)CCNC2 [Compound 43]
16 | 1.6 | 30.7 | 2.2 | > 100 | O=C(Nc1ccnc2[nH]ccc12)c1ccc(C2CCCCN2)cc1 (stereo not shown) [Compound 44, 4-piperidin-2-yl-N-(1H-pyrrolo[2,3pyridinedin-4-yl)-benzamidedihydrobromic acid salt]
